Results from patent US12497460B2, “Anti-MSR1 antibodies and methods of use thereof” (REGENERON PHARMACEUTICALS, INC., priority 2018, dated 2025).
Where two headings read alike, the source gives them in different places. Marks after values point to notes of the source that are not given here.

Legend:
[1] = test system: LPS-induced IL-1β release in differentiated THP-1 cells; assay: LPS-mediated IL-1β release assay; assay type: cell-based, human; details: for IC50: Homo sapiens, 100 ng/ml LPS for 5 hours, read-out: IC50, inhibition of LPS-induced IL-1β secretion
Method: To test the anti-inflammatory properties of anti-MSR1 antibody-steroid conjugates in vitro, a lipopolysaccharide (LPS)-mediated IL-1β release assay was performed. For the assay, THP-1 cells were seeded onto 96 well plates at 40,000 cells/well in media containing RPMI supplemented with 10% FBS and pencillin/streptomycinin and differentiated with 200 nM Phorbol Myristate Acetate (PMA) for 3 days. After the 3-day differentiation period, three-fold serial dilutions of antibody drug conjugates, unconjugated antibodies, or free payloads in fresh media were added to the cells at final concentration ranging from 100 nM to 0.01 nM. Media alone served as a blank control. Subsequently at 24, 48, or 72 hours later, cells were treated with 100 ng/ml LPS (InVivoGen, Cat #tlrl-eklps) for 5 hours. The cell media was then collected, and IL-1β levels were measured using a V-PLEX Proinflammatory Panel 1 human kit (Meso Scale Diagnostics, Cat #15049D-2) as per manufacturer's instructions. Subsequently, the plate was read on a Meso Scale Diagnostics instrument.
IC50 values were determined from a four-parameter logistic equation over a 10-point response curve (GraphPad Prism). All IC50 values are expressed in M (molar) concentration. The IC50 values and IL-1β amount at the maximum concentration of antibody-steroid conjugates or controls are shown in Table 22 each of the time point tested.

[2] = test system: Msr1^hu/hu ApoE^−/− mice, peritoneal cells; assay: Ex vivo LPS-induced cytokine production by peritoneal cells after in vivo dosing; set-up: species or system mouse; details: administered 2 hours before peritoneal cell isolation; ex vivo LPS
Method: To examine the anti-inflammatory effect of the anti-MSR1 antibody-steroid conjugates, an ex-vivo and in vivo LPS-induced inflammatory immune response model was performed.
Generation of a mouse inflammatory immune response model. Mice homozygously expressing human MSR1 extracellular domain in place of the mouse MSR1 extracellular domain and with a homozygous deletion of the ApoE gene were utilized (resulting mice referred to as Msr1^hu/hu ApoE^−/− mice).
(§1) Assay protocol for ex vivo LPS-induced responses. In ex vivo LPS challenge experiments, mice were intraperitoneally administered with 10 μL/g of anti-MSR1 antibody-steroid conjugates (H1H21234N-N297Q-LP13), isotype control steroid conjugate (Isotype control-LP13), unconjugated anti-MSR1 antibody (H1H21234N-N297Q) and isotype control antibodies at different time points (24, 48, and 72 hours) prior to harvesting the peritoneal cells from peritoneal cavity. […] All mice were sacrificed at 0 hour time point and peritoneal cells were obtained from the peritoneum by the peritoneal lavage technique. In brief, 5 mL of ice cold 1×PBS (ThermoFisher Scientific, Cat #20012027) containing 2% BSA (Gibco, Cat #A9576) and 0.6 mM EDTA (ThermoFisher Scientific, Cat #15575020) were injected into the peritoneal cavity using 27 g needle. […] The resuspended cells were plated at 500,000 cells per well in 24-well tissues culture plates and incubated with or without 10 ng/mL of LPS for 18 hours.
Measurement of cytokines at 18 hours post-LPS ex vivo challenge. Supernatants were collected into 96-well round bottom tissue culture plates at 18 hours post-ex vivo LPS challenge and stored at […] until further analysis. Cytokine concentrations in the supernatants were measured using a Proinflammatory Panel 1 (mouse) multiplex immunoassay kit (MesoScale Diagnostics, Cat #K15048D) according to manufacturer's instructions. Electrochemiluminescence was read on a Meso Scale Diagnostics SECTOR® instrument. Data analysis was performed using GraphPad Prism™ software. Statistical significance within the groups was determined by one-way Anova with Turkey's multiple comparison post-test (*p<0.01; **p<0.001; ***p<0.0001).

[3] = test system: Msr1^hu/hu ApoE^−/− mice, peritoneal macrophages; assay: LPS-mediated expression of CD80 on peritoneal macrophages (flow cytometry); assay type: in vivo, mouse; details: administered 2 hours before
Method: as §1
Assay protocol for in vivo LPS-induced responses. In in vivo LPS challenge experiments, mice were intraperitoneally administered with 10 μL/g of decreasing concentrations of anti-MSR1 antibody-steroid conjugates (H1H21234N-N297Q-LP13) and isotype control steroid conjugate (Isotype control-N297Q-LP13) at 24 hours prior to in vivo LPS challenge. PBS and free steroid P4 were intraperitoneally injected at 2 hours prior to in vivo LPS challenge. At 0 hour time point, three large drops of blood (volume ˜ 100 μL) were collected from the maxillary vein of each mouse into serum gel separator tubes. The tubes were centrifuged at 2200-2500 rpm for 15 minutes, and the serum was collected into 96-well plates for subsequent measurement of cytokines. At 18 hours post in vivo LPS challenge, the peritoneal cells were obtained from periotenal cavity as aforementioned for subsequent flow cytometry analysis.
Analysis of expression of activation markers on peritoneal macrophages after LPS ex vivo challenge. Upon collection of supernatants for cytokine analysis, the plates were washed twice with 1×PBS w/o Ca^++/Mg2^++ (ThermoFisher Scientific, Cat #14190144), and the adherent peritoneal cells were harvested by addition of 250-300 μL of cold Macrophage Detachment Solution DXF (PromoCell, Cat #C41330) for 40 minutes. The detached cells were collected into 50-mL tubes and centrifuged at 350×g for 15 minutes. After two washes with 1×PBS supplemented with 2 mM EDTA, the cells were resuspended in Cell Staining Buffer (Biolegend, #420201) and plated at 1×10^6 cells per well in a 96-well V bottom plate. […] Data were analyzed using FlowJo (Tree Star).

[4] = test system: hMSR1/ApoE-KO mice; assay: Anti-type II collagen antibody-induced arthritis (CAIA), clinical scores; assay type: in vivo, mouse
Method: An MSR1-non-cytotoxic antibody drug (ncADC) conjugate was tested in anti-type II collagen antibody-induced arthritis (CAIA) in vivo; cytokine detection in inflamed joints using Proinflammatory Panel 1 (mouse) Multiplex Immunoassay kit (MSD)
To further examine the anti-inflammatory effect of the anti-MSR1 Ab-steroid ncADC, the ncADC was evaluated in a collagen-antibody induced arthritis (CAIA) model in vivo. For the model, mice homozygously expressing human MSR1 extracellular domain and transmembrane domain in place of mouse MSR1 extracellular and transmembrane domains (humanized MSR1) and with a homozygous deletion of the ApoE gene (ApoE-KO) were utilized (resulting mice referred to as hMSR1/ApoE-KO mice).
(§2) To induce CAIA, hMSR1/ApoE-KO mice were intraperitoneally injected with an 8 mg/kg mixture of five anti-type II collagen mAbs (Chondrex, Cat #53100, Lot #180140) on day 0, followed by intraperitoneal administration with 50 μg lipopolysaccharide (LPS; 0111:B4; Chondrex, Cat #53100, Lot #180141) on day 3. Severity of the […] levels of arthritis was graded up to 13 days after mAb injection in each of the four limbs per mouse on a […]. The criteria for the grading were as follows: 0, normal; 1, mild redness and swelling of ankle/wrist or individual digits; 2, moderate redness and swelling of ankle/wrist; 3, severe redness and swelling of the entire paw including the digits; 4, maximal swelling in limbs involving multiple joints. The maximum value of the sum of the scores obtained from the four limbs of each mouse was 16. […] PBS, unconjugated anti-MSR1 Ab (H1H21234N-N297Q) and free steroid payload (P4-1), were intraperitoneally injected every other day or daily (referred to as P4-1 ED). All mice were sacrificed on day 13 and inflamed patella were collected for subsequent homogenization and cytokine detection.

[5] = test system: hMSR1/ApoE-KO mice; assay: CAIA, pro-inflammatory cytokines in joint homogenates; assay type: in vivo, mouse
Method: as §2
Inflamed knee patella were collected in 2 mL microcentrifuge tubes containing two tungsten carbide beads (Qiagen, Cat #69997) and 500 μL of T-per buffer (Thermo Scientific, Cat #78510, Lot #QF217759) containing protease inhibitor cocktail and 0.5M EDTA (Thermo Scientific, Cat #78444, Lot #RF231047). Tissues were disrupted at the frequency of 30s^−1 for 10 minutes using Qiagen Tissue Lyser II, centrifuged at 14,000 rpm for 7 minutes, and then supernatants were collected without disturbing the pellet. Cytokine concentrations in the supernatants were measured using a Proinflammatory Panel 1 (mouse) multiplex immunoassay kit (MesoScale Discovery, Cat #K15048D) according to the manufacturer's instructions. In brief, 50 μL/well of calibrators and samples (diluted in Diluent 41) were added to the plates pre-coated with capture antibodies and incubated at room temperature while shaking at 700 rpm for 2 hours. The plates were then washed 3 times with 1×PBS containing 0.05% (w/v) Tween-20, followed by the addition of 25 μL of Detection Antibody Solution diluted in Diluent 45. After 2-hour incubation at room temperature while shaking, the plates were washed 3 times, and 150 μL of 2× Read Buffer was added to each well. Electrochemiluminescence was immediately read on MSD Spector© instrument. Cytokine concentrations were normalized per total protein content in tissue homogenates measured using Bradford protein assay (BioRad, Cat #5000006, Lot #64144266). Data analysis was performed using GraphPad Prism™ software. Statistical significance within the groups was determined by one-way Anova with Turkey's multiple comparison post-test (*p<0.01; **p<0.001; ***p<0.0001).

[6] = joint homogenates, 2.95 mg/kg every 2 days

Compound | IL1beta released at max concentration tested ([1]; 24 hour treatment before LPS) | IL1beta released at max concentration tested ([1]; 48 hour treatment before LPS) | IL1beta released at max concentration tested ([1]; 72 hour treatment before LPS) | IC50 ([1]; THP-1, 24-hour time point) | IC50 ([1]; THP-1, 48-hour time point) | IC50 ([1]; THP-1, 72-hour time point) | Cytokine IL-6 [2] | Cytokine KC-GRO [2] | Cytokine TNF-α [2] | LPS-mediated expression of CD80, pMΦ Cells ([3]; hMSR1+F4/80+CD11b+ peritoneal macrophages) | LPS-mediated expression of CD80, non-pMΦ Cells ([3]; hMSR1−F4/80−CD11b− cells) | Clinical Score ([4]; 2.95 mg/kg, every 2 days d6-d12) | inhibition of CAIA ([4]; dosed every day (P4-1ED), compared with H1H21234N-N297Q-P4-3 at 21 mg/kg) | severity of CAIA (clinical scores) ([4]; every other day) | pro-inflammatory cytokine levels in inflamed joints ([5]; administered every other day) | Cytokines IL-1β [5, 6] | Cytokines IL-6 [5, 6] | Cytokines KC-GRO [5, 6] | Cytokines TNF-α [5, 6]
C[C@@H]1C[C@H]2[C@@H]3CCC4=CC(=O)C=C[C@]4(C)[C@@]3(F)[C@@H](O)C[C@]2(C)[C@@]1(O)C(=O)CO [Dexamethasone, dexamethasone, reference compound] | 45.33 pg/mL | 11.8 pg/mL | 13.34 pg/mL | 0.42 nM | 0.794 nM | 0.543 nM | 134.5 ± 18.2* ng/mL | 19.9 ± 1.5 ng/mL | 0.63 ± 0.11* ng/mL | 77.69 ± 2.6 % relative to PBS/LPS-treatment | 99.6 ± 5.8 % relative to PBS/LPS-treatment |  |  |  |  |  |  |  | 
CCC[C@@H]1O[C@@H]2C[C@H]3[C@@H]4C[C@H](F)C5=CC(=O)C=C[C@]5(C)[C@@]4(F)[C@@H](O)C[C@]3(C)[C@]2(C(=O)CN)O1 [P4-1, (1S,2S,4R,6R,8S,9S,11S,12R,13S,19S)-8-(2-Aminoacetyl)-12,19-difluoro-11-hydroxy-9,13-dimethyl-6-propyl-5,7-dioxapentacyclo[10.8.0.0^2,9.0^4,8.0^13,18]icosa-14,17-dien-16-one] |  |  |  |  |  |  |  |  |  |  |  | 9.4 ± 2.46 | Comparable inhibition of CAIA | did not attenuate CAIA | No effect | 20.6 ± 4.3 pg per mg of total protein | 131.4 ± 40.9 pg per mg of total protein | 8.9 ± 9 pg per mg of total protein | 8.3 ± 1.9 pg per mg of total protein
